According to patent US11497751B2, “Modulators of Rho-associated protein kinase” (Redx Pharma PLC, priority 2018, dated 2022):
Counter-ions that a name gives are not always drawn.

molecular target: T1, N-terminal 6His-tagged ROCK2 catalytic domain 11-552 (Homo sapiens, UniProt O75116); experiment: ROCK2 binding activity: ROCK2 inhibition, ADP-Glo Kinase Assay; format: biochemical; settings: 1.25 nM ROCK2, 100 μM long S6 peptide, 20 μM ATP; 1 hour pre-incubation; read-out: ADP-Glo kinase activity assay ROCK2 Category
T1 construct: N-terminal 6His-tagged ROCK2 catalytic domain 11-552; 6His (N); purchased Dundee University, UK; host or cells: baculovirus expression system
Method: Assay for ROCK2 inhibition was performed using the protein construct N-terminal 6His-tagged ROCK2 catalytic domain 11-552 (Dundee University, UK). Protein was purified from a baculovirus expression system. Long S6 peptide ([…]) was used as substrate. Kinase reactions were carried out in 15 μl volume in a 96-well plate (black, half area) using 1.25 nM constitutively active ROCK2 kinase, 100 μM long S6 peptide, 20 μM ATP and test compound in DMSO (or DMSO only for controls). The final concentration of DMSO was 1%. Assay buffer was 50 mM HEPES pH 7.5 supplemented with 0.2 mM EDTA, 10 mM magnesium acetate, 0.01% Tween-20, 1 mM DTT and 0.01% BSA. Test compounds were pre-incubated with ROCK2 kinase for 1 hour before addition of ATP and long S6 peptide. After incubation for a further 1 hour, the amount of ADP produced was measured using ADP-Glo Kinase Assay (Promega) as per manufacturer's instructions. The luminescence was measured on a PHERAstar FS (BMG Labtech). The concentration of test compound required to inhibit ADP production by 50% (the IC50) was calculated using a four-parameter logistic function with software by Dotmatics.
The category “+” refers to compounds with a ROCK2 IC50 value of >10 μM. The category “++” refers to compounds with a ROCK2 IC50 value of 10 to 3 μM. The category “+++” refers to compounds with a ROCK2 IC50 value of 3 to 0.3 μM. The category “++++” refers to compounds with a ROCK2 IC50 value of <0.3 μM.

T1 sequence (O75116 11-552): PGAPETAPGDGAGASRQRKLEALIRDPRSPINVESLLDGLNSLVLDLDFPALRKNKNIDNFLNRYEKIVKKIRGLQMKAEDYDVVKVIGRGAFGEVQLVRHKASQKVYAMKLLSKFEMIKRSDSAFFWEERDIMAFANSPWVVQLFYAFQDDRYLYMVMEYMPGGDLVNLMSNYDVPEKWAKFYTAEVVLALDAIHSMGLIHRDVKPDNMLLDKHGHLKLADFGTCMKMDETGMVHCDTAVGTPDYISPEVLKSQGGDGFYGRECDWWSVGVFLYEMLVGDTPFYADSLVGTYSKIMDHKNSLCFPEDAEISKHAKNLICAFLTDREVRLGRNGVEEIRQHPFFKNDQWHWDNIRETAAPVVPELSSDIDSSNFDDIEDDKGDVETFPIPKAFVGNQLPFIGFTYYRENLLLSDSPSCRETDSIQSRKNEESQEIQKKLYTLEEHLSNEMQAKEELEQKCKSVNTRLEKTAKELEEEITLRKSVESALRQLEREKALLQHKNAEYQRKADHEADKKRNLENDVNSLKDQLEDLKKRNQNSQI

SMILES | IC50
COc1ccc(-c2nnc(Nc3ccc4[nH]ncc4c3)[nH]2)cc1 [Example 1, N-[5-(4-Methoxyphenyl)-4H-1,2,4-triazol-3-yl]-1H-indazol-5-amine dihydrochloride] | 300 to 3000 nM
COc1cccc(-c2nnc(Nc3ccc4[nH]ncc4c3)[nH]2)c1 [Example 2] | 300 to 3000 nM
COc1cc(OC)cc(-c2nnc(Nc3ccc4[nH]ncc4c3)[nH]2)c1 [Example 3] | 300 to 3000 nM
COc1ccccc1-c1nnc(Nc2ccc3[nH]ncc3c2)[nH]1 [Example 4] | > 10000 nM
COc1ccc(-c2nnc(Nc3ccc4[nH]nc(C)c4c3)[nH]2)cc1 [Example 5] | 3000 to 10000 nM
CC(C)NC(=O)COc1ccc(-c2nnc(Nc3ccc4[nH]ncc4c3)[nH]2)cc1 [Example 7] | < 300 nM
COc1cc(-c2nnc(Nc3ccc4[nH]ncc4c3)[nH]2)ccc1OCC(=O)NC(C)C [Example 8] | < 300 nM
CNC(=O)COc1ccc(-c2nnc(Nc3ccc4[nH]ncc4c3)[nH]2)cc1OC [Example 9] | 300 to 3000 nM
Cc1cc(-c2nnc(Nc3ccc4[nH]ncc4c3)[nH]2)ccc1OCC(=O)NC(C)C [Example 10] | < 300 nM
c1ccc(COc2ccc(-c3nnc(Nc4ccc5[nH]ncc5c4)[nH]3)cc2)cc1 [Example 13] | 300 to 3000 nM
CC(C)NC(=O)COc1ccc(-c2nnc(Nc3ccc4[nH]ncc4c3)[nH]2)cc1CN [Example 15] | 300 to 3000 nM
CC(C)NC(=O)Cn1cc(-c2nnc(Nc3ccc4[nH]ncc4c3)[nH]2)ccc1=O [Example 16] | 300 to 3000 nM
CC(C)NC(=O)C(C)Oc1ccc(-c2nnc(Nc3ccc4[nH]ncc4c3)[nH]2)cc1 (centres unmarked) [Example 18] | 300 to 3000 nM
CC(C)NC(=O)C(C)(C)Oc1ccc(-c2nnc(Nc3ccc4[nH]ncc4c3)[nH]2)cc1 [Example 19] | 300 to 3000 nM
CC(C)NC(=O)CCc1ccc(-c2nnc(Nc3ccc4[nH]ncc4c3)[nH]2)cc1 [Example 20] | 300 to 3000 nM
CC(C)NC(=O)CCOc1ccc(-c2nnc(Nc3ccc4[nH]ncc4c3)[nH]2)cc1 [Example 21] | 300 to 3000 nM
NCCCOc1ccc(-c2nnc(Nc3ccc4[nH]ncc4c3)[nH]2)cc1 [Example 22] | 300 to 3000 nM
CC(C)C(=O)NCCOc1ccc(-c2nnc(Nc3ccc4[nH]ncc4c3)[nH]2)cc1 [Example 23] | 300 to 3000 nM
NCCOc1ccc(-c2nnc(Nc3ccc4[nH]ncc4c3)[nH]2)cc1 [Example 24] | 300 to 3000 nM

SMILES | IC50
CC(C)NC(=O)COc1ccc(-c2nnc(Nc3ccc4[nH]ncc4c3)[nH]2)c(F)c1 [Example 25] | 300 to 3000 nM
Cc1cc(OCC(=O)NC(C)C)ccc1-c1nnc(Nc2ccc3[nH]ncc3c2)[nH]1 [Example 26] | < 300 nM
COc1cc(OCC(=O)NC(C)C)ccc1-c1nnc(Nc2ccc3[nH]ncc3c2)[nH]1 [Example 27] | 300 to 3000 nM
CC(C)NC(=O)Cn1ccc(-c2nnc(Nc3ccc4[nH]ncc4c3)[nH]2)cc1=O [Example 28] | 3000 to 10000 nM
CC(C)NC(=O)COc1ccc(-c2nnc(Nc3ccc4[nH]ncc4c3)[nH]2)cn1 [Example 29] | 300 to 3000 nM
CC(C)NC(=O)COc1ccc(-c2nnc(Nc3ccc4[nH]ncc4c3Cl)[nH]2)cc1 [Example 30] | < 300 nM
O=C(O)COc1ccc(-c2nnc(Nc3ccc4[nH]ncc4c3)[nH]2)cc1 [Example 31] | 300 to 3000 nM
CC(C)NC(=O)CCn1ccc(-c2nnc(Nc3ccc4[nH]ncc4c3)[nH]2)cc1=O [Example 33] | > 10000 nM
CC(C)NC(=O)OCc1ccc(-c2nnc(Nc3ccc4[nH]ncc4c3)[nH]2)cc1 [Example 34] | < 300 nM
CC(C)NC(=O)CCn1cc(-c2nnc(Nc3ccc4[nH]ncc4c3)[nH]2)ccc1=O [Example 35] | 300 to 3000 nM
COc1cc(-c2nnc(Nc3ccc4[nH]ncc4c3)[nH]2)ccc1OCc1nnc(C)o1 [Example 40] | 300 to 3000 nM
CCNC(=O)c1ccc(-c2nc(Nc3ccc4[nH]ncc4c3Cl)n(C)n2)cc1F [Example 43, 4-[5-[(4-chloro-1H-indazol-5-yl)amino]-1-methyl-1,2,4-triazol-3-yl]-N-ethyl-2-fluoro-benzamide] | < 300 nM
COc1cc(-c2nc(Nc3ccc4[nH]ncc4c3)n(C)n2)ccc1OCC(=O)NC1CNC1 [Example 45] | < 300 nM
COc1cc(-c2nc(N(C)c3ccc4[nH]ncc4c3)n(C)n2)ccc1OCC(=O)NC(C)C [Example 46] | > 10000 nM
CN1CCc2cc(-c3nc(Nc4ccc5[nH]ncc5c4)n(C)n3)ccc2C1=O [Example 47] | < 300 nM
COc1cc(-c2nc(Nc3ccc4[nH]ncc4c3Cl)n(C)n2)ccc1OCC(=O)NC1(CO)CCCC1 [Example 50] | < 300 nM
COc1cc(-c2nc(Nc3ccc4[nH]ncc4c3Cl)n(C)n2)ccc1OCC(=O)NC1CCOC1 (centres unmarked) [Example 51] | < 300 nM
COC(=O)c1ccc(-c2nc(Nc3ccc4[nH]ncc4c3Cl)n(C)n2)cc1 [Example 56] | < 300 nM
Cn1nc(-c2cnn(Cc3ccccc3)c2)nc1Nc1ccc2[nH]ncc2c1Cl [Example 60] | 300 to 3000 nM

Second part, the compound after the results:

IC50 | SMILES
< 300 nM | CC(C)NC(=O)COc1cccc(-c2nnc(Nc3ccc4[nH]ncc4c3)[nH]2)c1 [Example 6]
< 300 nM | CC(C)NC(=O)COc1ccc(-c2nc(Nc3ccc4[nH]ncc4c3)n[nH]2)cc1F [Example 12, 2-[2-fluoro-4-[5-(1H-indazol-5-ylamino)-4H-1,2,4-triazol-3-yl]phenoxy]-N-isopropyl-acetamide]
< 300 nM | CC(C)NC(=O)COc1ccc(-c2nnc(Nc3ccc4[nH]ncc4c3)[nH]2)cc1C#N [Example 14]
< 300 nM | COC(=O)COc1ccc(-c2nnc(Nc3ccc4[nH]ncc4c3)[nH]2)cc1 [Example 17]
< 300 nM | CC(C)C(=O)NCCCOc1ccc(-c2nnc(Nc3ccc4[nH]ncc4c3)[nH]2)cc1 [Example 32]
300 to 3000 nM | CC(C)NC(=O)COc1c(F)cc(-c2nnc(Nc3ccc4[nH]ncc4c3)[nH]2)cc1F [Example 36]
300 to 3000 nM | CS(=O)(=O)NC(=O)COc1ccc(-c2nnc(Nc3ccc4[nH]ncc4c3)[nH]2)cc1 [Example 37]
< 300 nM | CC(C)NC(=O)COc1ccc(-c2nnc(Nc3ccc4[nH]ncc4c3)[nH]2)cc1Cl [Example 38]
300 to 3000 nM | Oc1ccc(-c2nnc(Nc3ccc4[nH]ncc4c3)[nH]2)cc1 [Example 39]
3000 to 10000 nM | CC(C)NC(=O)NCc1ccc(-c2nnc(Nc3ccc4[nH]ncc4c3)[nH]2)cc1 [Example 41]
< 300 nM | CCc1cc(-c2nnc(Nc3ccc4[nH]ncc4c3)[nH]2)ccc1OCC(=O)NC(C)C [Example 42]
< 300 nM | COc1cc(-c2nc(Nc3ccc4[nH]ncc4c3Cl)n(C)n2)ccc1OCC(=O)NC1CNC1 [Example 48]
< 300 nM | COc1cc(-c2nc(Nc3ccc4[nH]ncc4c3Cl)n(C)n2)ccc1OCC(=O)NC1CCNC1 (centres unmarked) [Example 49]
300 to 3000 nM | CC(C)NC(=O)COc1ccc(-c2nc(Nc3ccc4[nH]ncc4c3Cl)n(C)n2)cc1N1CCOCC1 [Example 52]
< 300 nM | CC(C)NC(=O)N1CCc2cc(-c3nc(Nc4ccc5[nH]ncc5c4Cl)n(C)n3)ccc2C1 [Example 54]
300 to 3000 nM | CNC(=O)Cc1ccc(-c2nc(Nc3ccc4[nH]ncc4c3Cl)n(C)n2)cc1OC [Example 57]
< 300 nM | CC(C)NC(=O)CN1CCOc2cc(-c3nc(Nc4ccc5[nH]ncc5c4Cl)n(C)n3)ccc21 [Example 58]
300 to 3000 nM | Cn1nc(-c2ccc(C(=O)N3CCOCC3)cc2)nc1Nc1ccc2[nH]ncc2c1Cl [Example 61]
